Results as given in patent US9260417B2, “Therapeutic methods and compositions involving allosteric kinase inhibition” (AMITECH THERAPEUTIC SOLUTIONS, INC., priority 2010, dated 2016).

How the values were obtained:
[1] = test system: bFGF induced angiogenesis; experiment: Mouse Matrigel model of angiogenesis; format: in vivo, mice; conditions: 50 mg/kg, ip, bid
Procedure: On day 5 after implantation of the Matrigel, the mice were administered FITC-lectin to label blood vessels. The plugs were removed and visualized by confocal microscopy followed by homogenization and quantification of total FITC. Error bars represent ±SEM. […] Thin sections (5 μm) of the Matrigel plugs were immunostained for vessels with an EC mix (anti-Flk, anti-CD31, anti-VE-Cadherin, and anti-endoglin). […] (FIG. 9C) 6 inhibits phosphorylation of PDGFRβY751 in stromal cells. Thin sections (5 μm) of the Matrigel plugs were immunostained for pericytes and fibroblast with α-smooth muscle actin and for phospho-PDGFRβ Y751 levels. ECs were immunostained with anti-CD31. […] Thin sections (5 μm) of the Matrigel plugs were immunostained for vessels with an EC mix (described as in 9B). TOPRO-3 was used as a nuclear counterstain and TUNEL staining was used to detect apoptotic nuclei. Images were taken using confocal laser scanning microscopy. […]
Female Nu/Nu mice were implanted with growth-factor depleted Matrigel (BD Biosciences, San Jose, Calif.) in the flank containing either PBS or 200 ng of bFGF (Peprotech). […] Five days after matrigel implantation, mice were tail-vein injected with FITC-lectin and plugs were harvested and imaged by confocal microscopy and quantified after homogenization in ice-cold PBS using a fluorescent microplate reader (Tecan Systems, Inc., San Jose, Calif.). […]

TRKA = TRKA (Homo sapiens (Human), UniProt P04629); experiment: KINOMEscan competitive binding assay; conditions: 10 uM
Chain of TRKA (P04629 33-796): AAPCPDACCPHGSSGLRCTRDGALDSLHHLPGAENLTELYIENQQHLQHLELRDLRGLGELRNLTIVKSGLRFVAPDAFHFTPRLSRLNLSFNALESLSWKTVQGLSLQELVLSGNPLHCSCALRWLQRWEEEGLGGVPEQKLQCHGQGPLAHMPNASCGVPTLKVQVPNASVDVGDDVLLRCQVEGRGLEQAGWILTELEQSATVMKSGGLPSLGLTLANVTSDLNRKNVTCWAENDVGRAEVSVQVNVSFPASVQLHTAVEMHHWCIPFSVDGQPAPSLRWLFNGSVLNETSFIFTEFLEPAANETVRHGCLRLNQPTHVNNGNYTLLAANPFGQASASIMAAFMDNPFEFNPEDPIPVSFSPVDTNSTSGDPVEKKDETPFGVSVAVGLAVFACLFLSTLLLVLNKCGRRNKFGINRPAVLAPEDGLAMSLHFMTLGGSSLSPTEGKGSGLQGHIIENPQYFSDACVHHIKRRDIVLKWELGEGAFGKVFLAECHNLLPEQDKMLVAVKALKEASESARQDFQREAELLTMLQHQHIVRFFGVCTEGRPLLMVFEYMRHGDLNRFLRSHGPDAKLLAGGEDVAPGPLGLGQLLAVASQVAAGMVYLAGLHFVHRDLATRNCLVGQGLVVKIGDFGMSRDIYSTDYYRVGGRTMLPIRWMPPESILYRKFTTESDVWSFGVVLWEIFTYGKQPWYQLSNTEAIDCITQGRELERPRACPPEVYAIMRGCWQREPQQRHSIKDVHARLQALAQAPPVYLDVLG
Excerpt: (§1) In vitro kinase screen and competitive binding assay. Sorafenib as well as test compounds were submitted to Invitrogen and screened using their SelectScreen™ Profiling Service.

PIK3CA = PIK3CA (Homo sapiens (Human), UniProt P42336); experiment: KINOMEscan competitive binding assay; conditions: 10 uM
Excerpt: as §1

TIE2 = TIE2 (Homo sapiens (Human), UniProt Q02763); experiment: KINOMEscan competitive binding assay; conditions: 10 uM
Excerpt: as §1

KIT(V559D, V654A) = KIT(V559D, V654A) (Homo sapiens (Human), UniProt P10721, V559D/V654A); experiment: KINOMEscan competitive binding assay; conditions: 10 uM
Chain of KIT(V559D, V654A) (P10721 26-976 V559D/V654A): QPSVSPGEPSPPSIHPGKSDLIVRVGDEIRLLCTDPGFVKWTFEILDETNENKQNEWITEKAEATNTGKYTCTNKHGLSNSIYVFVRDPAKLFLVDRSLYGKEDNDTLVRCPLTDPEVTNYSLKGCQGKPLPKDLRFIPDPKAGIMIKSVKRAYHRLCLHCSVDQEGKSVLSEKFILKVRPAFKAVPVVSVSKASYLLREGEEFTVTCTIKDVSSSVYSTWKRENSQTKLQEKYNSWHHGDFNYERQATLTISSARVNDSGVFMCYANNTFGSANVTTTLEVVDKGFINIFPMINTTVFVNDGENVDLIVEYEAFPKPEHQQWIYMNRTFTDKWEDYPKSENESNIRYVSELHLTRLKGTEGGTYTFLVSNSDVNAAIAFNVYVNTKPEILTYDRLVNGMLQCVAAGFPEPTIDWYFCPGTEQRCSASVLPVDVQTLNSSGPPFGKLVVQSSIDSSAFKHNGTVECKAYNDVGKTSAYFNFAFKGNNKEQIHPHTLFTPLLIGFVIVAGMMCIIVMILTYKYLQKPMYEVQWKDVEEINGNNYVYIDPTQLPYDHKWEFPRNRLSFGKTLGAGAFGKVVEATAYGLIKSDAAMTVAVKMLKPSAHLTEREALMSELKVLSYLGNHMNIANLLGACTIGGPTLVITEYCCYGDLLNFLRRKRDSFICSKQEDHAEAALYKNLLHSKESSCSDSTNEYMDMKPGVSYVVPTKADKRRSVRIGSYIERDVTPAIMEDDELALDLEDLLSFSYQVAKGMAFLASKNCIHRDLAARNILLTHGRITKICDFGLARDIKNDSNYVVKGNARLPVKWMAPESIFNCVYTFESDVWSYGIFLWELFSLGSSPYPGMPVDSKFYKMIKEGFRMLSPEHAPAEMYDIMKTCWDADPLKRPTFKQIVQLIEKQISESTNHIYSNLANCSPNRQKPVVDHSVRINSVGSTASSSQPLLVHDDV
Excerpt: as §1

BMX = BMX (Homo sapiens (Human), UniProt P51813); experiment: KINOMEscan competitive binding assay; conditions: 10 uM
Excerpt: as §1

PAK4 = PAK4 (Homo sapiens (Human), UniProt O96013); experiment: KINOMEscan competitive binding assay; conditions: 10 uM
Chain of PAK4 (O96013 whole entry): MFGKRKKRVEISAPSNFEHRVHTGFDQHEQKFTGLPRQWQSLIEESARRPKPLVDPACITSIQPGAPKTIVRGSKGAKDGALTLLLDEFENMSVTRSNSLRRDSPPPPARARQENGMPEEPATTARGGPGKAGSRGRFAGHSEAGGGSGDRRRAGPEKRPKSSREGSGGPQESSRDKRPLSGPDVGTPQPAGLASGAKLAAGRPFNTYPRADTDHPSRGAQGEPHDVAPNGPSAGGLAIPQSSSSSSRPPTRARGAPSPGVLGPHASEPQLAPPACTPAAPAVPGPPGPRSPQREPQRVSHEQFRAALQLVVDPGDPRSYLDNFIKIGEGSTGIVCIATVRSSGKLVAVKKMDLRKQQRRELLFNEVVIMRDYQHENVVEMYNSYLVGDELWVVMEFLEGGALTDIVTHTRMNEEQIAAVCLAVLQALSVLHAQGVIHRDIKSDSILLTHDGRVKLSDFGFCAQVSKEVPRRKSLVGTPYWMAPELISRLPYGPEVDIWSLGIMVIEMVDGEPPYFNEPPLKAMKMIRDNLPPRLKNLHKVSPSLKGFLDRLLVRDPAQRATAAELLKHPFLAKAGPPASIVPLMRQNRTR
Excerpt: as §1

FLT3 D835Y = FLT3 D835Y (Homo sapiens (Human), UniProt P36888, D835Y); experiment: KINOMEscan competitive binding assay; conditions: 10 uM
Excerpt: as §1

MET = MET (Homo sapiens (Human), UniProt P08581); experiment: KINOMEscan competitive binding assay; conditions: 10 uM
Excerpt: as §1

FLT3(N841I) = FLT3(N841I) (Homo sapiens (Human), UniProt P36888, N841I); experiment: KINOMEscan competitive binding assay; conditions: 10 uM
Excerpt: as §1

EPHB4 = EPHB4 (Homo sapiens (Human), UniProt P54760); experiment: KINOMEscan competitive binding assay; conditions: 10 uM
Chain of EPHB4 (P54760 16-987): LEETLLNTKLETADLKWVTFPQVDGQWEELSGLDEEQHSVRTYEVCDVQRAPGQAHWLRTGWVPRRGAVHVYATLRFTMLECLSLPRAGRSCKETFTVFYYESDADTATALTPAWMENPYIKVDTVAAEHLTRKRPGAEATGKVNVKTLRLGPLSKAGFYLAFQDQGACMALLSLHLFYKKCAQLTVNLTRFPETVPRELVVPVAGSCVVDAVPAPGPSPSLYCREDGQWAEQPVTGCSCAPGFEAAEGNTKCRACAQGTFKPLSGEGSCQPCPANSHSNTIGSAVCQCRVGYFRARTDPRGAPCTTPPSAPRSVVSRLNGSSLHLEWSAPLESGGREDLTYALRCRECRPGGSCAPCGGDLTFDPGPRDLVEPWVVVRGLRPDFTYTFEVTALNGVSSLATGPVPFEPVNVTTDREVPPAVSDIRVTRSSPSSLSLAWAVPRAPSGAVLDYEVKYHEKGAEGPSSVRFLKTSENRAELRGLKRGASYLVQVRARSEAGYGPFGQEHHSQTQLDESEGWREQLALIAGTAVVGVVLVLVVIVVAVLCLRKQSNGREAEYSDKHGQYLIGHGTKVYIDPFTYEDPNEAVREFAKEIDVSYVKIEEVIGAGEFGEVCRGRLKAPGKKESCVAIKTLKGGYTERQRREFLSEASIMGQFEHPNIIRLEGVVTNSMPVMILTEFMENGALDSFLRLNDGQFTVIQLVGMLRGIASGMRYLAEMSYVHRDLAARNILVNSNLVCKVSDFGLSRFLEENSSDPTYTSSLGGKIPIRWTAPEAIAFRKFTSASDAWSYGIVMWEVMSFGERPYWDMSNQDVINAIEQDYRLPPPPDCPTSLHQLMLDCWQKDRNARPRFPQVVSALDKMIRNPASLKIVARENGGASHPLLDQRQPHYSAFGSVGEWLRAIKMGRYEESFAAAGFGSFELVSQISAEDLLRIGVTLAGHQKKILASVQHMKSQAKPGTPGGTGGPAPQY
Excerpt: as §1

LIMK2 = LIMK2 (Homo sapiens (Human), UniProt P53671); experiment: KINOMEscan competitive binding assay; conditions: 10 uM
Chain of LIMK2 (P53671 whole entry): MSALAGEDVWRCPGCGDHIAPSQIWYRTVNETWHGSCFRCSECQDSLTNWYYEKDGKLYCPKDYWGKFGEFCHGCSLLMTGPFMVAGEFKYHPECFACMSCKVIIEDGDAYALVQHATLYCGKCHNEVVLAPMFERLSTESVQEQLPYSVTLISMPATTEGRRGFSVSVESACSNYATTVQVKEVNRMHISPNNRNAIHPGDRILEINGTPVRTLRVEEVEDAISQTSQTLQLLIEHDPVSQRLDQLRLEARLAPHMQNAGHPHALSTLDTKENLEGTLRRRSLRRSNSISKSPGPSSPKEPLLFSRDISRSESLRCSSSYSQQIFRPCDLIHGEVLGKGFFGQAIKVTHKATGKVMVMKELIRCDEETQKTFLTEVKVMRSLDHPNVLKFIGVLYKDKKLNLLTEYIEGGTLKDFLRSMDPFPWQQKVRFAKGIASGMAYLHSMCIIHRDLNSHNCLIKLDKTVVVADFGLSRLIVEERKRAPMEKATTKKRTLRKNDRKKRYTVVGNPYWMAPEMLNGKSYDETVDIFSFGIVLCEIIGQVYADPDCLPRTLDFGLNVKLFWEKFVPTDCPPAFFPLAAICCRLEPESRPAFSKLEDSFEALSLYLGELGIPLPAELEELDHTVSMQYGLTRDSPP
Excerpt: as §1

INSR = INSR (Homo sapiens (Human), UniProt P06213); experiment: KINOMEscan competitive binding assay; conditions: 10 uM
Excerpt: as §1

IGF1R = IGF1R (Homo sapiens (Human), UniProt P08069); experiment: KINOMEscan competitive binding assay; conditions: 10 uM
Excerpt: as §1

FLT1 = FLT1 (Homo sapiens (Human), UniProt P17948); experiment: KINOMEscan competitive binding assay; conditions: 10 uM
Excerpt: as §1

CLK2 = CLK2 (Homo sapiens (Human), UniProt P49760); experiment: KINOMEscan competitive binding assay; conditions: 10 uM
Chain of CLK2 (P49760 whole entry): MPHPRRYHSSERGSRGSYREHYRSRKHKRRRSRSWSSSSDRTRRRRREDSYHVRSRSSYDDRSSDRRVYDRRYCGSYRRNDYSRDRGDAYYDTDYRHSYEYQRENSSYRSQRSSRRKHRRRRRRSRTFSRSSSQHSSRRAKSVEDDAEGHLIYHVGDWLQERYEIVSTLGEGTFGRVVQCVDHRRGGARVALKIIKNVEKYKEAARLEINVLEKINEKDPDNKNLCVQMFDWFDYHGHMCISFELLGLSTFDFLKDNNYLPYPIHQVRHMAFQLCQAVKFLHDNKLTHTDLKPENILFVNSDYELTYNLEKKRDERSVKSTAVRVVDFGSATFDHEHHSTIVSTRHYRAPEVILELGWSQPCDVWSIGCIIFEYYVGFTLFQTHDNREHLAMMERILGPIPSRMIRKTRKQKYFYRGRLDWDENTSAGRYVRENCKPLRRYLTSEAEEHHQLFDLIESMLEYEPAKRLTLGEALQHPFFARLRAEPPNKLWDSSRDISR
Excerpt: as §1

PRKCD = PRKCD (Homo sapiens (Human), UniProt Q05655); experiment: KINOMEscan competitive binding assay; conditions: 10 uM
Excerpt: as §1

FLT3(D835H) = FLT3(D835H) (Homo sapiens (Human), UniProt P36888, D835H); experiment: KINOMEscan competitive binding assay; conditions: 10 uM
Excerpt: as §1

CSc1nc(N)cc(Oc2ccc(-c3nnc(Nc4cccc(C(F)(F)F)c4)[nH]3)cc2)n1 [Compound 6]
p-ERK staining in endothelial cells of Matrigel plugs [1]: suppression in the p-ERK staining
p-PDGFRβY751 signal in stromal compartment of Matrigel plugs [1]: complete suppression
% Control (TRKA): 64%
% Control (PIK3CA): 100%
% Control (TIE2): 88%
% Control (KIT(V559D, V654A)): 15%
% Control (BMX): 97%
% Control (PAK4): 100%
% Control (FLT3 D835Y): 18%
% Control (MET): 94%
% Control (FLT3(N841I)): 3.1%
% Control (EPHB4): 94%
% Control (LIMK2): 72%
% Control (INSR): 100%
% Control (IGF1R): 100%
% Control (FLT1): 81%
% Control (CLK2): 84%
% Control (PRKCD): 74%
% Control (FLT3(D835H)): 17%
